Test results from PubChem BioAssay (NCI).
Values joined by “and” are separate entries in the source; they are usually repeats but may differ in a detail not shown here. Equal values may be shown once.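 Cultured in 96-well plates, cells were exposed to test compound for 48 hours across five concentrations. Abbreviation: GI50, concentration required for 50% inhibition of growth. At the TGI there is no net growth.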

What was measured:
Test in all cases: DTP human tumour cell line panel, 48 h
OVCAR-5 ovarian = test system: OVCAR-5 ovarian
HS 578T breast = test system: HS 578T breast
UO-31 renal = test system: UO-31 renal
RXF 393 renal = test system: RXF 393 renal
MOLT-4 leukemia = test system: MOLT-4 leukemia
NCI-H226 lung = test system: NCI-H226 lung
ACHN renal = test system: ACHN renal
SNB-75 CNS = test system: SNB-75 CNS
SF-268 CNS = test system: SF-268 CNS
HCC-2998 colon = test system: HCC-2998 colon

| SMILES | TGI (OVCAR-5 ovarian) | TGI (HS 578T breast) [µM] | TGI (UO-31 renal) | TGI (RXF 393 renal) | TGI (MOLT-4 leukemia) [µM] | TGI (NCI-H226 lung) | TGI (ACHN renal) [µM] | TGI (SNB-75 CNS) [µM] | TGI (SF-268 CNS) [µM] | TGI (HCC-2998 colon) [µM] | GI50 (HS 578T breast) [µM] | GI50 (UO-31 renal) | GI50 (RXF 393 renal) | GI50 (NCI-H226 lung) | GI50 (ACHN renal) | GI50 (HCC-2998 colon) [µM] |
| --- | --- | --- | --- | --- | --- | --- | --- | --- | --- | --- | --- | --- | --- | --- | --- | --- |
| CCOC(=O)c1nc2ccc(C(F)(F)F)cc2nc1Oc1cc(OC)c(OC)c(OC)c1 | > 100 µM | 73.5 | > 100 µM | > 100 µM | > 100 | 81.9 µM | > 100 | 68.6 | > 100 |  |  |  |  |  |  |  |
| O=[N+]([O-])c1ccc2sc(C=Nc3cnccn3)cc2c1 | > 100 µM | 49.5 | > 100 µM | 33.5 µM | 34.3 |  | > 100 | 63.5 | > 100 | 40.7 |  |  |  |  |  |  |
| COc1cc([C@@H]2c3cc4c(cc3[C@@H](c3c(O)cc(O)c5c3O[C@H](c3ccc(O)c(O)c3)[C@@H](O)C5)[C@H]3COC(=O)[C@H]23)OCO4)cc(OC)c1OC | 69.7 µM | > 100 |  | 3.28 µM | > 100 |  | 3.16 |  | > 100 | 3.48 |  |  |  |  |  |  |
| COc1ccc(C2=Nc3cc(C)c(C)cc3NC(c3ccccc3)C2)cc1 (stereo not given) | > 100 µM | > 100 | > 100 µM | > 100 µM | > 100 | > 100 µM | > 100 |  | > 100 | > 100 |  |  |  |  |  |  |
| O=C1NC(=O)C(C(CC(=O)c2ccc([N+](=O)[O-])cc2)c2ccccc2)C(=O)N1 (stereo not given) | > 100 µM | 31.7 | > 100 µM | 55.8 µM | > 100 | > 100 µM | > 100 | > 100 | > 100 |  |  |  |  |  |  |  |
| O=S(Nc1ccccc1)c1ccc(N2CCOCC2)cc1 (stereo not given) |  | > 100 | 42.7 µM |  | > 100 | > 100 µM | > 100 |  | > 100 | > 100 |  |  |  |  |  |  |
| CCCCOC(=O)C(NC(C(=O)OCCCC)c1cc(C(C)(C)C)c(O)c(C(C)(C)C)c1)c1cc(C(C)(C)C)c(O)c(C(C)(C)C)c1 (stereo not given) | > 100 µM | > 100 | > 100 µM |  | > 100 | > 100 µM | > 100 | > 100 | > 100 |  |  |  |  |  |  |  |
| C[N+](C)(C)c1ccc(C(N)C(=O)O)cc1 (stereo not given) | > 100 µM | > 100 | > 100 µM | > 100 µM |  | > 100 µM | > 100 | > 100 | > 100 | > 100 |  |  |  |  |  |  |
| COc1ccc2c3c1OC1C(=O)C=CC4(CC2)N(C)CCC314 (stereo not given) | 92.4 µM | 92.5 | 78.5 µM | > 100 µM | 59 |  | 73.9 | > 100 | 91 | 27.4 |  |  |  |  |  |  |
| CC(C)CNc1nc2ncnc(N)c2[nH]1 | > 100 µM | > 100 | > 100 µM | > 100 µM | > 100 | > 100 µM | > 100 |  | > 100 | > 100 |  |  |  |  |  |  |
| CN(C)C(=O)OC1C(=O)N(C)c2ccc(Cl)cc2C2(c3ccccc3)N1C2(Cl)Cl (stereo not given) | > 100 µM |  | > 100 µM | > 100 µM | > 100 | > 100 µM | > 100 | > 100 | > 100 | > 100 |  |  |  |  |  |  |
| C=C/C(C)=C\CC1[C@](C)(O)CC[C@H]2C(C)(C)C(=O)CC[C@]12C (stereo not given in full) | > 100 µM | > 100 | 57 µM | > 100 µM | 79.3 | > 100 µM | > 100 | > 100 | > 100 |  |  |  |  |  |  |  |
| C[C@H](NC(=O)C(Cc1ccccc1)(Cc1ccc(O)cn1)NC(=O)c1ccccc1)c1ccccc1 (stereo not given in full) | 37.4 µM | 41.1 | 29.1 µM | 28.2 µM | 84.9 | 36.5 µM | 43.2 |  | 39.1 | 30.8 |  |  |  |  |  |  |
| C[n+]1cccc2c(=O)c3ccccc3oc21 | > 100 µM | > 100 | > 100 µM | > 100 µM |  | > 100 µM | > 100 | > 100 | > 100 | > 100 |  |  |  |  |  |  |
| [Cl][Sn]([c]1ccccc1)([c]1ccccc1)[c]1ccccc1 | 0.456 µM and 0.266 µM and 0.0901 µM | 23 | 0.366 µM and 0.209 µM and 0.127 µM | 0.324 µM and 0.0434 µM |  | 0.423 µM and 0.484 µM and 0.433 µM |  |  |  |  | 0.378 | 0.183 µM and 0.0863 µM and 0.0343 µM | 0.161 µM and 0.0196 µM | 0.194 µM and 0.271 µM and 0.278 µM | 0.213 µM and 0.034 µM and 0.0215 µM |  |
| CC(C)=NN/C(=N\S(=O)(=O)c1ccc(Oc2cccc(Cl)c2C#N)cc1)Nc1ccc(Cl)cc1 | > 100 µM | > 100 | > 100 µM |  | > 100 | > 100 µM |  |  | > 100 |  |  |  |  |  |  |  |
| O=C(NCCCCCCCCCCCCNC(=O)Nc1cccc2ccccc12)Nc1cccc2ccccc12 | 79.6 µM | 52.4 | 33.9 µM | 30.6 µM | 42.2 |  | 27.1 | 32.7 | 31.3 | 27.8 |  |  |  |  |  |  |
| CC1CCCC2(CC[N+](C)(CCC[N+](C)(C)C)CC2)C1 (stereo not given) | > 100 µM | > 100 | > 100 µM | > 100 µM | > 100 | > 100 µM | > 100 | > 100 | > 100 |  |  |  |  |  |  |  |
| CCOP(=O)(/C=C\n1cc(C)c(=O)[nH]c1=O)OCC | > 100 µM |  |  | > 100 µM | > 100 | > 100 µM | > 100 | > 100 | > 100 |  |  |  |  |  |  |  |
| COc1cc2ccc(=O)oc2cc1O | 514 µM |  | 183 µM | > 569 µM | 223 | 283 µM |  | 175 | > 585 | 305 |  |  |  |  |  | 56.4 |
| NC(=O)c1cccc([N+](=O)[O-])c1 |  |  | > 100 µM |  | > 100 | > 100 µM |  | > 100 | > 100 | > 100 |  |  |  |  |  |  |
| CC(=O)OCC1OC(SC2=N/C(=C\c3ccc(Br)s3)C(=O)N2CN2CCOCC2)C(OC(C)=O)C(OC(C)=O)C1OC(C)=O (stereo not given) | 72.1 µM | > 100 | 29.4 µM |  | 52.8 | 32.5 µM | 46.2 | 68.3 | 81.9 | 38.7 |  |  |  |  |  |  |
| O=c1cc(N2CCCC2)[nH]c(=O)n1Cc1ccccc1 | > 100 µM |  |  |  | > 100 | > 100 µM | > 100 | > 100 |  | > 100 |  |  |  |  |  |  |
| COP(=O)(OC)C(Cc1cn(C(C)=O)c2ccccc12)C(=O)O (stereo not given) | > 100 µM | > 100 | > 100 µM |  | > 100 | > 100 µM | > 100 | > 100 |  | > 100 |  |  |  |  |  |  |
